Experiments:
[1] = Displacement of [3H]2BFI from Imidazoline receptor 2 in Sprague-Dawley rat brain P2 membrans after […] by liquid scintillation counting
[2] = molecular target: T1, Adrenergic receptor alpha-1 (Rattus norvegicus, UniProt P15823+P23944+P43140); test: Displacement of [3H]prazosine from Alpha-1 adrenergic receptor in Sprague-Dawley rat brain P2 membranes after […] by liquid scintillation counting
T1 sequence (P15823 whole entry): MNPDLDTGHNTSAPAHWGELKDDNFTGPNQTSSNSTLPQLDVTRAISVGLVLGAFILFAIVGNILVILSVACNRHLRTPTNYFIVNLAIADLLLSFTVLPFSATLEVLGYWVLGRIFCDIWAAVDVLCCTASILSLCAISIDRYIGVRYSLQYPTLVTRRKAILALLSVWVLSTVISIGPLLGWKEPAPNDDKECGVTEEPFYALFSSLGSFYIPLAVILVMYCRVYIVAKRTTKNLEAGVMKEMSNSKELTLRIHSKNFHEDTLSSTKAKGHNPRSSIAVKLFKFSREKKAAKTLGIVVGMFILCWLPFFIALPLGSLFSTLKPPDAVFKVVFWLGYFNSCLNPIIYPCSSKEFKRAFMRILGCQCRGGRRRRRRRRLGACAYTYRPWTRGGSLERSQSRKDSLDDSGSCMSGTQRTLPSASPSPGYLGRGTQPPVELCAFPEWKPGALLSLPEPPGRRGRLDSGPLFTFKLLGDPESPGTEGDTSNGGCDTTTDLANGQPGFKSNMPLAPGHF
T1 sequence (P23944 whole entry): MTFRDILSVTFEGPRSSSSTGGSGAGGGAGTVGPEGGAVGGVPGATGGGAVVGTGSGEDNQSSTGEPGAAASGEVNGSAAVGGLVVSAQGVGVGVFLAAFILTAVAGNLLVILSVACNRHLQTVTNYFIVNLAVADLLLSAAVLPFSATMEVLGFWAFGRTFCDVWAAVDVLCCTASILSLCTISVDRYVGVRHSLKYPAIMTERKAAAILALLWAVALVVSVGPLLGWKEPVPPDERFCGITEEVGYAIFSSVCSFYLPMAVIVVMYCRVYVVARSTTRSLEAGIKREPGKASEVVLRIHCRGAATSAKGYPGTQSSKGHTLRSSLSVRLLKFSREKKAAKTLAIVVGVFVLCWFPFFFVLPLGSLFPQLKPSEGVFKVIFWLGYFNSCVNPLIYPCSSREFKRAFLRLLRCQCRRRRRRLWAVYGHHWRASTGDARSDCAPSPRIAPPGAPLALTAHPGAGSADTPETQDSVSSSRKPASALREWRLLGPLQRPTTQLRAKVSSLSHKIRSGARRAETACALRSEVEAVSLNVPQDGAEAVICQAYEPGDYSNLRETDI
T1 sequence (P43140 whole entry): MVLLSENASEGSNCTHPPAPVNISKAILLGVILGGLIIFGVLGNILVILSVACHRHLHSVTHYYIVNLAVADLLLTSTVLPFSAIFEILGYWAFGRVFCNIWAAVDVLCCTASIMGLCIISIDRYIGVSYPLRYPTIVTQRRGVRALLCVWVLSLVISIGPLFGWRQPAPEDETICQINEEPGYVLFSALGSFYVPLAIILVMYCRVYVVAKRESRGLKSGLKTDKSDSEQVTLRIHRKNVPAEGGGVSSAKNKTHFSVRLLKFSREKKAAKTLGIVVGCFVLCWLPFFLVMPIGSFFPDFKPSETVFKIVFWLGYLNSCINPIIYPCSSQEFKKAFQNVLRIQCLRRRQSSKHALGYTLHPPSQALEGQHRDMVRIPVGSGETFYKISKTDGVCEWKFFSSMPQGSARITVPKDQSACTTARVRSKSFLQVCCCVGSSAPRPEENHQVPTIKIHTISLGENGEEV

Nischarin = Nischarin (Rattus norvegicus, UniProt Q4G017); test: Displacement of [3H]clonidine from Imidazoline receptor 1 in Sprague-Dawley rat kidney P2 membranes after […] by liquid scintillation counting
[3] = molecular target: T2, Adrenergic receptor alpha-2 (Rattus norvegicus, UniProt P22086+P19328+P22909); test: Displacement of [3H]RX821002 from Alpha-2 adrenergic receptor in Sprague-Dawley rat brain P2 membranes after […] by liquid scintillation counting
T2 sequence (P22086 whole entry): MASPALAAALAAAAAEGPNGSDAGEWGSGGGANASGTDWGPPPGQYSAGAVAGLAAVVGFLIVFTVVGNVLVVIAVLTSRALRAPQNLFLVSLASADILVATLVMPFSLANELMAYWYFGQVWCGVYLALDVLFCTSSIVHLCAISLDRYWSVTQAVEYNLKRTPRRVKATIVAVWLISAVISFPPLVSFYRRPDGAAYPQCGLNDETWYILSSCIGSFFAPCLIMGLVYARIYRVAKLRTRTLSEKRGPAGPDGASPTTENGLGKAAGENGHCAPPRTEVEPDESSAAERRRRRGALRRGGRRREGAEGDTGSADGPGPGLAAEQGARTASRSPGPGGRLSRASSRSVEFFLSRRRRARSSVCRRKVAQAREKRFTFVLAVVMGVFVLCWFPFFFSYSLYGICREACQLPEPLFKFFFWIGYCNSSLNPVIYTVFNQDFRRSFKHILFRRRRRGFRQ
T2 sequence (P19328 whole entry): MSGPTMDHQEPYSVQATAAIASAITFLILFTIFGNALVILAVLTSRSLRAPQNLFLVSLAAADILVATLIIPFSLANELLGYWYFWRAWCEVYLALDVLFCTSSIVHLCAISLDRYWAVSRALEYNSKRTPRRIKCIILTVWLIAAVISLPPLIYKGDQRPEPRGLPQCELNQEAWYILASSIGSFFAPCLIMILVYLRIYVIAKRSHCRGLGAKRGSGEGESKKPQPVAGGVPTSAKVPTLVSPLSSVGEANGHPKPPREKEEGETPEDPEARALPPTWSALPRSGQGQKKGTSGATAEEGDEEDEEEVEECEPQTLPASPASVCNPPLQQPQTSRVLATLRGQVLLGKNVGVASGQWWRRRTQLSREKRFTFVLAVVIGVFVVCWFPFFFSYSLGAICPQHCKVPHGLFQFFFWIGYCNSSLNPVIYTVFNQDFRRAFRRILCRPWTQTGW
T2 sequence (P22909 whole entry): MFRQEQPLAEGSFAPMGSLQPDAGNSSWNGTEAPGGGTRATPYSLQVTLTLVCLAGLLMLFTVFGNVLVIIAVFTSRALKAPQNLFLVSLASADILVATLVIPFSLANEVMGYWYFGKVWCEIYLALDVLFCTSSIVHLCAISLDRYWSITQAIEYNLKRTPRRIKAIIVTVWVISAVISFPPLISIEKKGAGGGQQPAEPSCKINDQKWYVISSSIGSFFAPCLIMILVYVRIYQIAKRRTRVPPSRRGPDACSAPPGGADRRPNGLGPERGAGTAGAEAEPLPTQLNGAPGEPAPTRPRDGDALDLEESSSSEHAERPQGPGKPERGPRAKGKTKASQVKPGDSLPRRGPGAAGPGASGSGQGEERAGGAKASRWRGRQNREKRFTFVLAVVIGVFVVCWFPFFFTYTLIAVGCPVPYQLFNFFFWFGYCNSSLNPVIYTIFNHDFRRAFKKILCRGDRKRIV

Chain of Nischarin (Q4G017 whole entry): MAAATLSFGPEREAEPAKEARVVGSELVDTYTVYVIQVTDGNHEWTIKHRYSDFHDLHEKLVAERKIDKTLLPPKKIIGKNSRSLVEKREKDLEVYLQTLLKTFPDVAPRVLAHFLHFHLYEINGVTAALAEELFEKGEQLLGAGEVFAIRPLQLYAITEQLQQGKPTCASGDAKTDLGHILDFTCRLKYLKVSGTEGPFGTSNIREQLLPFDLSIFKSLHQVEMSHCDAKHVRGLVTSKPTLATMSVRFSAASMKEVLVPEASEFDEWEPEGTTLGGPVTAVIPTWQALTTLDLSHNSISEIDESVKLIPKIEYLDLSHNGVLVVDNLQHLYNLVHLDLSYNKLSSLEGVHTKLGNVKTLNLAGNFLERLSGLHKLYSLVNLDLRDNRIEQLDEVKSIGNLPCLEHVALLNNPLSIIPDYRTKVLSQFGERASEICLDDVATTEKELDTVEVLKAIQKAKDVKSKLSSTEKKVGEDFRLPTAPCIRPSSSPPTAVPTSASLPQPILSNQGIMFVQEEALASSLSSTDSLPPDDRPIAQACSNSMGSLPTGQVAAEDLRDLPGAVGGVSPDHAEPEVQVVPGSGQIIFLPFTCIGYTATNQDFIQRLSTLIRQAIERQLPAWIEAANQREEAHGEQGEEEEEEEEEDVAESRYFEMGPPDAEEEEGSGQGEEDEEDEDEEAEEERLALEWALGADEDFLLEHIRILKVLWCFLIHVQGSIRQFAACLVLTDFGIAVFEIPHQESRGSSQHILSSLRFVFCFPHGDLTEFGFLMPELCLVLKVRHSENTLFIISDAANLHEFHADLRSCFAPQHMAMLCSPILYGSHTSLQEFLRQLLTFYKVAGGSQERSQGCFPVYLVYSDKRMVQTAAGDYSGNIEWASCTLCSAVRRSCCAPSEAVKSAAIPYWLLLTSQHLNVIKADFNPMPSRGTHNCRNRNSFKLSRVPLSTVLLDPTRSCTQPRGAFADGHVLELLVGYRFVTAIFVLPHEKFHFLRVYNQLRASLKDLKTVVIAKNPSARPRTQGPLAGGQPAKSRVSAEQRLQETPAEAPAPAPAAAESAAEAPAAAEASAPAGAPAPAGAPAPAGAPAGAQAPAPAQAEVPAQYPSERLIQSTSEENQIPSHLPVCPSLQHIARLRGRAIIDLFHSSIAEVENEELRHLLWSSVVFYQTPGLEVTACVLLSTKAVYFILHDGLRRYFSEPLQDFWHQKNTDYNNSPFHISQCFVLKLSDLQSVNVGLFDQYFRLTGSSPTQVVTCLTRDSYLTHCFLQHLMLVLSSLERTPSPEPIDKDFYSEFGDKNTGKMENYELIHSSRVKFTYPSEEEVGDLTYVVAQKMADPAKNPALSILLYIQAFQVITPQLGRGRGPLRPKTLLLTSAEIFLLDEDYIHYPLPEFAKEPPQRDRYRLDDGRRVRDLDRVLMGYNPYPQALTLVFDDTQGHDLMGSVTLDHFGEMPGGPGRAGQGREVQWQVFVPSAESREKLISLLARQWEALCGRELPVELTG

## Cl.Fc1cccc2c1ccn2CC1=NCCN1
[1]
  Ki: 249 nM
[2]
  Ki: 27.56 nM
Nischarin
  Ki: 14600 nM
[3]
  Ki: 46.97 nM

## Brc1cccc2ccn(CC3=NCCN3)c12.Cl
[1]
  Ki: 254 nM
[2]
  Ki: 7.91 nM
Nischarin
  Ki: 79.2 nM
[3]
  Ki: 18.3 nM

## Brc1cccc2c1ccn2CC1=NCCN1.Cl
[1]
  Ki: 179 nM
[2]
  Ki: 257.7 nM
Nischarin
  Ki: 468 nM
[3]
  Ki: 84.4 nM

## Br.COc1cccc2ccn(CC3=NCCN3)c12
[1]
  Ki: 2470 nM
[2]
  Ki: 394.2 nM
Nischarin
  Ki: 588000 nM
[3]
  Ki: 280 nM

## Cl.Fc1cccc2ccn(CC3=NCCN3)c12
[1]
  Ki: 32.1 nM
[2]
  Ki: 36.7 nM
Nischarin
  Ki: 9630 nM
[3]
  Ki: 16.57 nM

## CCc1cccc2ccn(CC3=NCCN3)c12.Cl
[1]
  Ki: 880 nM
[2]
  Ki: 439.4 nM
Nischarin
  Ki: 45800 nM
[3]
  Ki: 71.7 nM

## Cl.Fc1ccc2ccn(CC3=NCCN3)c2c1
[1]
  Ki: 240 nM
[2]
  Ki: 87.83 nM
Nischarin
  Ki: 789 nM
[3]
  Ki: 15.9 nM

## Cl.Clc1ccc2ccn(CC3=NCCN3)c2c1
[1]
  Ki: 48.5 nM
[2]
  Ki: 228.7 nM
Nischarin
  Ki: 5580 nM
[3]
  Ki: 94.5 nM

## Brc1ccc2c(ccn2CC2=NCCN2)c1.Cl
[1]
  Ki: 30.3 nM
[2]
  Ki: 1348 nM
Nischarin
  Ki: 10500 nM
[3]
  Ki: 596.7 nM

## Br.c1ccc(COc2cccc3ccn(CC4=NCCN4)c23)cc1
[1]
  Ki: 10400 nM
[2]
  Ki: 381.8 nM
Nischarin
  Ki: 36300 nM
[3]
  Ki: 5241 nM

## Cl.Fc1ccc2c(ccn2CC2=NCCN2)c1
[1]
  Ki: 66.3 nM
[2]
  Ki: 306.7 nM
Nischarin
  Ki: 32.1 nM
[3]
  Ki: 68.43 nM
